# The source made the active and inactive calls. No cut-off for these calls is given here.
# Tests used:
# [1] = biological target: T1, Cereblon/Casein kinase I alpha (Homo sapiens, UniProt P48729+Q96SW2); test: Molecular glue activity at CRBN/HiBiT-tagged CK1-alpha in human Jurkat cells assessed as induction of CK1-alpha degradation incubated for 5 hrs by Nano-Glo HiBiT assay; assay type: cell-based
# [2] = biological target: Zinc finger protein Aiolos (Homo sapiens) (UniProt Q9UKT9); test: Induction of IKZF3 degradation in human MOLT-4 cells at 1 uM incubated for 5 hrs by quantitative mass spectrometry based proteomic analysis; assay type: cell-based
# Zinc finger protein Aiolos (Homo sapiens), sequence (Q9UKT9 whole entry): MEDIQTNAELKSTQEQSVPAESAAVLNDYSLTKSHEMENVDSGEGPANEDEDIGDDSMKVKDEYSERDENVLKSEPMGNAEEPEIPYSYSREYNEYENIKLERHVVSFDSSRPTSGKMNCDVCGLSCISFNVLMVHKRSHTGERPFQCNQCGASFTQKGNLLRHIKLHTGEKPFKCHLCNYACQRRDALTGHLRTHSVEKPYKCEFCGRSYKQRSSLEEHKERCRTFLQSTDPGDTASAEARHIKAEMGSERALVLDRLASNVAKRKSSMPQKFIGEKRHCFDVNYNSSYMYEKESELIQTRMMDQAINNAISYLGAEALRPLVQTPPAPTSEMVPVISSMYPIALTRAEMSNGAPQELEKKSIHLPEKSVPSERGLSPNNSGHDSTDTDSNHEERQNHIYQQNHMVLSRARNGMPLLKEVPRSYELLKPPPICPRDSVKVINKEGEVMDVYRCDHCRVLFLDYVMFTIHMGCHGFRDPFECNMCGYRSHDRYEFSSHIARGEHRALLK
# MOLT-4 [3] = test: Induction of IKZF1 degradation in human MOLT-4 cells at 1 uM incubated for 5 hrs by quantitative mass spectrometry based proteomic analysis; assay type: cell-based
# MOLT-4 [4] = test: Induction of WEE1 degradation in human MOLT-4 cells at 1 uM incubated for 5 hrs by quantitative mass spectrometry based proteomic analysis; assay type: cell-based
# MOLT-4 [5] = test: Induction of GSPT1 degradation in human MOLT-4 cells at 1 uM incubated for 5 hrs by quantitative mass spectrometry based proteomic analysis; assay type: cell-based
# [6] = biological target: T1, Cereblon/Casein kinase I alpha; test: Molecular glue activity at CRBN/CK1-alpha in human MOLM-14 cells assessed as increase in MDM2 level at 0.1 to 1 uM incubated for 24 hrs by Western blot analysis; assay type: cell-based; details: dose 0.1-1 µM
# Target sequence in this assay (P48729 2-337 limits assumed): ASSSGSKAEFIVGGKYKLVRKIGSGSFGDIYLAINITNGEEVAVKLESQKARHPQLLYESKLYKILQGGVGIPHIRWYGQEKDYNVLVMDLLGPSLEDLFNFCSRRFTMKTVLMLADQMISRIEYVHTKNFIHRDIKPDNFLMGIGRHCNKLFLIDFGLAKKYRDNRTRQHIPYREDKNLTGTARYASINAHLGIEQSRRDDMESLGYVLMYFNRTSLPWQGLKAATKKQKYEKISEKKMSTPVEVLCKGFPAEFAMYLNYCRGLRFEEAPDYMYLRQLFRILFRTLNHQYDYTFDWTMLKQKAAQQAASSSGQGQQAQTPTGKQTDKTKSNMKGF
# Target sequence in this assay (Q96SW2 whole entry partner): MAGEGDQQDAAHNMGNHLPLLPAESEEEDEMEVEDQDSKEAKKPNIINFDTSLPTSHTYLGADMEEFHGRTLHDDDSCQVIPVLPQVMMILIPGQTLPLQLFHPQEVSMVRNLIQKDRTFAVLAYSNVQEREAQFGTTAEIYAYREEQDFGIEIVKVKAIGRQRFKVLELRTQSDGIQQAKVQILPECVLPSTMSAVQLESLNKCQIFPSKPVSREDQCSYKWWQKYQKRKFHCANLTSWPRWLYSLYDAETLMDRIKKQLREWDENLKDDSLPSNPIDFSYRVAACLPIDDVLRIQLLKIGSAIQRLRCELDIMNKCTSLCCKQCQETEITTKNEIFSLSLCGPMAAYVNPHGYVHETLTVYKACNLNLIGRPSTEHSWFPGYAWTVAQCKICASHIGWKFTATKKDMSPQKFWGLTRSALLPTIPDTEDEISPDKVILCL
# [7] = biological target: T1, Cereblon/Casein kinase I alpha; test: Molecular glue activity at CRBN/CK1-alpha in human MOLM-13 cells assessed as increase in p53 level at 0.1 to 1 uM incubated for 24 hrs by Western blot analysis; assay type: cell-based; details: dose 0.1-1 µM
# Target sequence in this assay (P48729 2-337 limits assumed): as the sequence (P48729 2-337 limits assumed) above
# Target sequence in this assay (Q96SW2 whole entry partner): as the sequence (Q96SW2 whole entry partner) above
# [8] = biological target: T1, Cereblon/Casein kinase I alpha; test: Molecular glue activity at CRBN/CK1-alpha in human MOLM-13 cells assessed as increase in MDM2 level at 0.1 to 1 uM incubated for 24 hrs by Western blot analysis; assay type: cell-based; details: dose 0.1-1 µM
# Target sequence in this assay (P48729 2-337 limits assumed): as the sequence (P48729 2-337 limits assumed) above
# Target sequence in this assay (Q96SW2 whole entry partner): as the sequence (Q96SW2 whole entry partner) above
# [9] = biological target: T1, Cereblon/Casein kinase I alpha; test: Molecular glue activity at CRBN/CK1-alpha in human MOLM-14 cells assessed as increase in p21 level at 0.1 to 1 uM incubated for 24 hrs by Western blot analysis; assay type: cell-based; details: dose 0.1-1 µM
# Target sequence in this assay (P48729 2-337 limits assumed): as the sequence (P48729 2-337 limits assumed) above
# Target sequence in this assay (Q96SW2 whole entry partner): as the sequence (Q96SW2 whole entry partner) above
# [10] = biological target: T1, Cereblon/Casein kinase I alpha; test: Molecular glue activity at CRBN/CK1-alpha in human MOLM-13 cells assessed as increase in p21 level at 0.1 to 1 uM incubated for 24 hrs by Western blot analysis; assay type: cell-based; details: dose 0.1-1 µM
# Target sequence in this assay (P48729 2-337 limits assumed): as the sequence (P48729 2-337 limits assumed) above
# Target sequence in this assay (Q96SW2 whole entry partner): as the sequence (Q96SW2 whole entry partner) above
# [11] = biological target: T1, Cereblon/Casein kinase I alpha; test: Molecular glue activity at CRBN/CK1-alpha in human MOLT-4 cells with CRBN-/- assessed as induction of CK1-alpha degradation at 1 uM incubated for 5 hrs by quantitative mass spectrometry based proteomic analysis; assay type: cell-based
# Target sequence in this assay (P48729 2-337 limits assumed): as the sequence (P48729 2-337 limits assumed) above
# Target sequence in this assay (Q96SW2 whole entry partner): as the sequence (Q96SW2 whole entry partner) above
# [12] = biological target: T1, Cereblon/Casein kinase I alpha; test: Molecular glue activity at CRBN/CK1-alpha in human MOLM-14 cells assessed as increase in p53 level at 0.1 to 1 uM incubated for 24 hrs by Western blot analysis; assay type: cell-based; details: dose 0.1-1 µM
# [13] = Metabolic stability in mouse liver microsomes assessed as half life; assay type: ADME, Microsome; details: for t1/2: microsomes
# [14] = Metabolic stability in human liver microsomes assessed as half life; assay type: ADME, Microsome
# [15] = Metabolic stability in mouse liver microsomes assessed as intrinsic clearance; assay type: ADME, Microsome
# [16] = Metabolic stability in human liver microsomes assessed as intrinsic clearance; assay type: ADME, Microsome
# MOLM-13 = test: Antiproliferative activity against human MOLM-13 cells incubated for 72 hrs by CellTiter-Glo Luminescent Cell Viability Assay; assay type: functional, cell-based; details: MOLM-13, 72 h
# [17] = biological target: T1, Cereblon/Casein kinase I alpha; test: Molecular glue activity at CRBN/CK1-alpha in human MOLM-14 cells assessed as induction of CK1-alpha degradation at 1 uM incubated for 5 hrs by Western blot analysis; assay type: cell-based
# MOLM-14 [18] = test: Antiproliferative activity against human MOLM-14 cells with CRBN-/- incubated for 72 hrs by CellTiter-Glo Luminescent Cell Viability Assay; assay type: functional, cell-based
# [19] = biological target: T1, Cereblon/Casein kinase I alpha; test: Molecular glue activity at CRBN/CK1-alpha in human MOLM-13 cells assessed as induction of CK1-alpha degradation at 1 uM incubated for 5 hrs by Western blot analysis; assay type: cell-based
# MOLM-14 [20] = test: Antiproliferative activity against human MOLM-14 cells incubated for 72 hrs by CellTiter-Glo Luminescent Cell Viability Assay; assay type: functional, cell-based
# [21] = biological target: T1, Cereblon/Casein kinase I alpha; test: Molecular glue activity at CRBN/CK1-alpha in human MOLT-4 cells assessed as induction of CK1-alpha degradation at 1 uM incubated for <3 hrs by Western blot analysis; assay type: cell-based
compound,measurement,setting,value
COc1ccn2cc(C(=O)Nc3ccc4c(c3)CN(C3CCC(=O)NC3=O)C4=O)nc2c1 (stereo unspecified),DC50,[1],3.1 nM
same,EC90,[1],53 nM
O=C1CCC(N2Cc3cc(CNC(=O)c4cn5ccccc5n4)ccc3C2=O)C(=O)N1 (stereo unspecified),DC50,[1],> 10000 nM
O=C1CCC(N2Cc3cc(NC(=O)c4cn5cc(Cl)ccc5n4)ccc3C2=O)C(=O)N1 (stereo unspecified),DC50,[1],1.3 nM
same,EC90,[1],14.9 nM
Cc1cccc2nc(C(=O)Nc3ccc4c(c3)CN(C3CCC(=O)NC3=O)C4=O)cn12 (stereo unspecified),DC50,[1],3.3 nM
same,EC90,[1],35.3 nM
COc1cccn2cc(C(=O)Nc3ccc4c(c3)CN(C3CCC(=O)NC3=O)C4=O)nc12 (stereo unspecified),DC50,[1],8.1 nM
same,EC90,[1],73.1 nM
O=C1CCC(N2Cc3cc(NC(=O)c4cn5ccc(F)cc5n4)ccc3C2=O)C(=O)N1 (stereo unspecified),DC50,[1],17.5 nM
same,EC90,[1],135 nM
O=C1CCC(N2Cc3cc(NC(=O)c4cc5ncccn5n4)ccc3C2=O)C(=O)N1 (stereo unspecified),DC50,[1],61 nM
O=C1CCC(N2Cc3cc(NC(=O)c4cnc5ccccc5n4)ccc3C2=O)C(=O)N1 (stereo unspecified),DC50,[1],8.8 nM
O=C1CCC(N2Cc3cc(NC(=O)c4cc5ccccc5cn4)ccc3C2=O)C(=O)N1 (stereo unspecified),Activity,[2],inactive
same,DC50,[1],7.56 nM
same,Activity,MOLT-4 [3],inactive
same,Activity,MOLT-4 [4],inactive
same,Activity,MOLT-4 [5],inactive
COc1ccc2cc(C(=O)Nc3ccc4c(c3)CN(C3CCC(=O)NC3=O)C4=O)ccc2c1 (stereo unspecified),Activity,[6],Active
same,Activity,[7],Active
same,Activity,[8],Active
same,Activity,[9],Active
same,Activity,[10],Active
same,Activity,[11],Not active; Compound Induced Ck1-Alpha Degradation In A Crbn Dependent Manner
same,Activity,[12],Active
O=C1CCC(N2Cc3cc(NC(=O)c4cc5ccccn5c4)ccc3C2=O)C(=O)N1 (stereo unspecified),DC50,[1],87 nM
O=C1CCC(N2Cc3cc(NC(=O)c4cnc5ccccc5c4)ccc3C2=O)C(=O)N1 (stereo unspecified),t1/2,[13],> 120 min
same,Activity,[2],inactive
same,t1/2,[14],23.4 min
same,CLH,[15],< 6 µL/min/mg
same,CLH,[16],30 µL/min/mg
same,DC50,[1],79 nM
same,Activity,MOLT-4 [3],inactive
same,Activity,MOLT-4 [4],inactive
same,Activity,MOLT-4 [5],inactive
O=C1CCC(N2Cc3cc(NC(=O)c4nc5ccccc5[nH]4)ccc3C2=O)C(=O)N1 (stereo unspecified),DC50,[1],11.1 nM
O=C1CCC(N2Cc3c(NC(=O)c4cnc5ccccc5c4)cccc3C2=O)C(=O)N1 (stereo unspecified),DC50,[1],> 10000 nM
O=C1CCC(N2C(=O)c3ccc(NC(=O)c4cnc5ccccc5c4)cc3C2=O)C(=O)N1 (stereo unspecified),DC50,[1],79 nM
O=C1CCC(N2Cc3cc(NC(=O)c4cn5cccc(C(F)(F)F)c5n4)ccc3C2=O)C(=O)N1 (stereo unspecified),IC50,MOLM-13,29 nM
same,Activity,[17],Active
same,DC50,[1],1.6 nM
same,EC90,[1],25 nM
same,Activity,MOLM-14 [18],inactive
same,Activity,[19],Active
same,Activity,MOLM-14 [20],Active
Cc1c(C(=O)Nc2ccc3c(c2)CN(C2CCC(=O)NC2=O)C3=O)nc2ccccn12 (stereo unspecified),DC50,[1],8.4 nM
O=C1CCC(N2Cc3cc(Nc4noc5ccccc45)ccc3C2=O)C(=O)N1 (stereo unspecified),Activity,[6],Active
same,Activity,[7],Active
same,Activity,[8],Active
same,Activity,[9],Active
same,Activity,[10],Active
same,Activity,[11],Not active; Compound Induced Ck1-Alpha Degradation In A Crbn Dependent Manner
same,Activity,[12],Active
O=C1CCC(N2Cc3c(CNC(=O)c4cnc5ccccc5c4)cccc3C2=O)C(=O)N1 (stereo unspecified),DC50,[1],138 nM
O=C1CCC(N2Cc3cc(NC(=O)c4cnc5ccccn45)ccc3C2=O)C(=O)N1 (stereo unspecified),DC50,[1],82 nM
CN1C(=O)CCC(N2Cc3cc(NC(=O)c4cn5ccccc5n4)ccc3C2=O)C1=O (stereo unspecified),Activity,[17],Active
same,DC50,[1],> 10000 nM
same,Activity,[19],Active
O=C1CCC(N2C(=O)c3ccc(NC(=O)c4cn5ccccc5n4)cc3C2=O)C(=O)N1 (stereo unspecified),DC50,[1],88 nM
CCN(CC)CCNC(=O)c1c(C)[nH]c(/C=C2\C(=O)Nc3ccc(F)cc32)c1C [SUNITINIB],half-life,[13]; liver microsomes,20.9 min
same,t1/2,[14],39.4 min
same,CLH,[15],33 µL/min/mg
same,CLH,[16],18 µL/min/mg
O=C1CCC(N2Cc3cc(NC(=O)c4nc5ccccn5n4)ccc3C2=O)C(=O)N1 (stereo unspecified),DC50,[1],61 nM
COc1ccc2nc(C(=O)Nc3ccc4c(c3)CN(C3CCC(=O)NC3=O)C4=O)cn2c1 (stereo unspecified),IC50,MOLM-13,23 nM
same,t1/2,[13],> 120 min
same,t1/2,[14],33.2 min
same,Activity,[17],Active
same,CLH,[15],< 6 µL/min/mg
same,CLH,[16],21 µL/min/mg
same,DC50,[1],1.1 nM
same,EC90,[1],16.2 nM
same,Activity,MOLM-14 [18],inactive
same,Activity,[19],Active
same,Activity,MOLM-14 [20],Active
O=C1CCC(N2Cc3cc(NC(=O)c4cc5ccccn5n4)ccc3C2=O)C(=O)N1 (stereo unspecified),IC50,MOLM-13,14 nM
same,t1/2,[13],6.3 min
same,t1/2,[14],65.4 min
same,Activity,[17],Active
same,CLH,[15],111 µL/min/mg
same,CLH,[16],11 µL/min/mg
same,DC50,[1],4.7 nM
same,Activity,MOLM-14 [18],inactive
same,Activity,[19],Active
same,Activity,MOLM-14 [20],Active
O=C1CCC(N2Cc3cc(-c4cnc5ccccc5c4)ccc3C2=O)C(=O)N1 (stereo unspecified),IC50,MOLM-13,2400 nM
same,t1/2,[13],65.6 min
same,Activity,[2],inactive
same,Activity,[6],Active
same,Activity,[7],Active
same,t1/2,[14],> 120 min
same,Activity,[17],Active
same,CLH,[15],11 µL/min/mg
same,Activity,[8],Active
same,Activity,[21],Active
same,Activity,[9],Active
same,CLH,[16],< 6 µL/min/mg
same,Activity,[10],Active
same,DC50,[1],46.8 nM
same,Activity,MOLT-4 [3],inactive
same,Activity,MOLM-14 [18],inactive
same,Activity,[19],Active
same,Activity,[11],Not active; Compound Induced Ck1-Alpha Degradation In A Crbn Dependent Manner
same,Activity,MOLT-4 [4],inactive
same,Activity,MOLM-14 [20],Active
same,Activity,[12],Active
same,Activity,MOLT-4 [5],inactive
O=C1CCC(N2Cc3ccc(NC(=O)c4cn5ccccc5n4)cc3C2=O)C(=O)N1 (stereo unspecified),DC50,[1],> 10000 nM
O=C1CCC(N2Cc3cc(NC(=O)c4cn5cc(F)ccc5n4)ccc3C2=O)C(=O)N1 (stereo unspecified),DC50,[1],6.1 nM
same,EC90,[1],45.5 nM
O=C1CCC(N2Cc3cc(CNC(=O)c4cnc5ccccc5c4)ccc3C2=O)C(=O)N1 (stereo unspecified),DC50,[1],> 10000 nM

# — ChEMBL document CHEMBL6153096, “Development of Potent and Selective CK1α Molecular Glue Degraders” (J Med Chem, 2025)
